Where “and” joins values, the source holds several entries; their conditions need not be identical. Equal entries are not always repeated. Structures can show the parent of a compound that is named as a salt.
What was measured:
cat T1R1/T1R3 receptor [1] = biological target: T1, cat T1R1/T1R3 receptor (Felis catus, UniProt E3UMS2); assay: Activation of cat T1R1/T1R3 receptor by nucleotide derivatives alone, with alanine and/or IMP; HEK293 cells, intracellular calcium fluorescence (Example 1); format: cell-based
Text: […] Activation of the T1R1/T1R3 receptor was detected by a change in intracellular calcium levels using a calcium sensitive fluorescent dye. Cells that express T1R3 but not T1R1 were used as a control. A FLIPR® Tetra or a FlexStation® 3 was used for data capture.
The term half maximal effective concentration (EC50) refers to the concentration of a compound which induces a response halfway between the baseline and the maximum after a specified exposure time. In each experiment, serial dilutions of up to 0.1 mM, 1 mM or 10 mM of the nucleotide derivative were added to the T1R1/T1R3-expressing cells.

T1R1/T1R3 receptor [2] = biological target: T2, T1R1/T1R3 receptor (Felis catus, UniProt E3UMS2); assay: Activation of T1R1/T1R3 receptor by transmembrane compounds and nucleotide derivatives, conducted as in Examples 1, 2 and 5 (Example 7); format: cell-based, cat
Text: (§1) Methods: HEK293 cells that stably express T1R3 and inducibly express T1R1 were exposed to nucleotide derivatives alone to activate the umami receptor. Activation of the T1R1/T1R3 receptor was detected by a change in intracellular calcium levels using a calcium sensitive fluorescent dye. Cells that express T1R3 but not T1R1 were used as a control. A FLIPR® Tetra or a FlexStation® 3 was used for data capture.
as §1, with “alone or in combination with one or more amino acids and/or one or more nucleotides” for “alone”, “dye and/or a luminescent reporter system.” for “dye.”
as §1, with “transmembrane compounds” for “nucleotide derivatives”, “alone or in combination with one or more amino acids and/or one or more nucleotides” for “alone”
In each experiment, serial dilutions of up to 10 mM of the transmembrane compound were added to the T1R1/T1R3-expressing cells.

T1R1/T1R3 receptor [3] = biological target: T2, T1R1/T1R3 receptor; assay: PAM screening of transmembrane compounds with GMP and Ala on T1R1/T1R3 in HEK293 cells (Example 8); format: cell-based, cat; conditions: for T1R1/T1R3 PAM: transmembrane compound at 0.01, 0.1 and 1 mM with GMP + Ala mixtures (T1-T4), PAM if response greater than sum of compound alone and GMP+Ala alone
Text: PAM Screening Method: HEK293 cells that stably express T1R3 and inducibly express T1R1 were exposed to transmembrane compound alone or in combination with Ala and GMP to activate the umami receptor. Activation of the T1R1/T1R3 receptor was detected by a change in intracellular calcium levels using a calcium sensitive fluorescent dye and/or a luminescent reporter system. […] A FLIPR® Tetra or a FlexStation® 3 was used for data capture.
Dose response curves were generated for each transmembrane compound at concentrations of 0 (buffer only), 0.01, 0.1 and 1 mM, wherein each of the three concentrations of transmembrane compound was tested in combination with 0.03 mM GMP+100 mM Ala (T1); 0.6 mM GMP+10 mM Ala (T2); 0.1 mM GMP+60 mM Ala (T3) and 0.3 mM GMP+60 mM Ala (T4). The T4 mixture was also tested in a 2-fold dilution series (the T4(X) Concentration). In these experiments, the first test concentration was 2× (2 times) the T4 concentration. The subsequent test concentrations were 2-fold dilutions from that (1×, 0.5× etc.). This dilution series was tested with or without the addition of the test compound at a constant 0.3 mM concentration.
Activation of the umami receptor was also determined in the presence of 1 mM GMP+100 mM Ala to generate a “maximum” umami receptor activation level.

T1R1/T1R3 receptor [4] = biological target: T2, T1R1/T1R3 receptor; assay: Agonist screening of transmembrane compounds on T1R1/T1R3 in HEK293 cells (Example 8); format: cell-based, cat; conditions: for T1R1/T1R3 agonist: transmembrane compound tested at 0.01, 0.1 and 1 mM, HEK293 cells expressing T1R1/T1R3, calcium readout
Experimental: Agonist Screening Method: HEK293 cells that stably express T1R3 and inducibly express T1R1 were exposed to a transmembrane compound. Activation of the T1R1/T1R3 receptor was detected by a change in intracellular calcium levels using a calcium sensitive fluorescent dye and/or a luminescent reporter system. […] A FLIPR® Tetra or a FlexStation® 3 was used for data capture.
Each transmembrane compound was tested at concentrations of 0.01 mM, 0.1 mM, and 1 mM. […] To generate the dose response curves, the transmembrane compound was tested at concentrations of between 0.0001 mM and 1.0 mM in the presence of GMP and Ala.

T1R1/T1R3 receptor [5] = biological target: T2, T1R1/T1R3 receptor; assay: Activation of T1R1/T1R3 receptor by transmembrane compounds alone or with alanine, IMP, GMP, phenylalanine; HEK293 cells, calcium fluorescence (Example 5); format: cell-based, cat
How it was run: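 HEK293 cells stably expressing feline T1R3 with inducible T1R1 treated with serial dilutions (up to 10 mM) of transmembrane compounds, alone or combined with amino acids and/or nucleotides. Activation read as intracellular calcium change via calcium-sensitive fluorescent dye; T1R3-only cells served as control.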

cat T1R1/T1R3 receptor [6] = biological target: T1, cat T1R1/T1R3 receptor; assay: cell-based; format: cell-based
How it was run: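 Umami receptor activation in HEK293 cells stably expressing T1R3 with inducible T1R1, exposed to nucleotide derivatives alone or combined with amino acids and/or nucleotides. Intracellular calcium read with a calcium-sensitive fluorescent dye and/or luminescent reporter; cells expressing T1R3 without T1R1 served as control.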

[7] = EC50- with IMP (mM), with 0.2 mM IMP
[8] = compound alone in buffer, read-out: EC50- alone
[9] = with 20 mM alanine, read-out: EC50- with Ala

SMILES: Nc1ncnc2c1ncn2C1OC(COP(=O)(O)O)C(OP(=O)(O)O)C1O (stereo not drawn) [listing 1 of 2 here]
- EC50 (cat T1R1/T1R3 receptor [1]; [7]): > 0.01 mM
- EC50 (cat T1R1/T1R3 receptor [1]; [8]): > 0.01 mM
- EC50 (cat T1R1/T1R3 receptor [1]; [9]): > 0.01 mM

SMILES: COC(=O)[C@H](Cc1ccccc1)NCc1ccccc1 [N-Benzyl-L-phenylalanine methyl ester]
- Max resp ΔF/F +Alanine (20 mM) (T1R1/T1R3 receptor [2]): 1.8725 ΔF/F
- Thres +Alanine (20 mM) (T1R1/T1R3 receptor [2]): 0.01 mM
- Max resp % of Ala +IMP (0.2 mM) (T1R1/T1R3 receptor [2]; +IMP (0.2 mM)): 289.4 % of Ala
- Max resp ΔF/F +IMP (0.2 mM) (T1R1/T1R3 receptor [2]; +IMP (0.2 mM)): 2.2500 ΔF/F
- Thres +IMP (0.2 mM) (T1R1/T1R3 receptor [2]; +IMP (0.2 mM)): 0.003 mM
- Max resp % of IMP +Alanine (20 mM) (T1R1/T1R3 receptor [2]; hek293 cells): 273.4 % of IMP
- Activity (T1R1/T1R3 receptor [2]; modulation of T1R1/T1R3): active
- PAM profile assessment (activation of T1R1/T1R3 in the presence of GMP and Alanine) (T1R1/T1R3 receptor [3]): PAM activity
- agonist profile assessment (activation of T1R1/T1R3 by the compound alone) (T1R1/T1R3 receptor [4]): agonist

SMILES: C[C@H](N)C(=O)O [alanine, reference compound]
- EC50 (cat T1R1/T1R3 receptor [1]; [8]): 13.6 mM

SMILES: Nc1ncnc2c1ncn2C1OC(COP(=O)(O)O)C(OP(=O)(O)O)C1O (stereo not drawn) [listing 2 of 2 here]
- EC50 (cat T1R1/T1R3 receptor [1]; [8]): > 0.03 mM
- EC50 (cat T1R1/T1R3 receptor [1]; [9]): 0.003 ± 0.0003 mM

SMILES: CCCC(CCC)NC(=O)c1ccc2c(c1)OCO2 [N-(heptan-4-yl)benzo[d][1,3]dioxole-5-carboxamide]
- PAM profile assessment (activation of T1R1/T1R3 in the presence of GMP and Alanine) (T1R1/T1R3 receptor [3]): PAM activity
- +Alanine (20 mM) Max resp % of IMP (T1R1/T1R3 receptor [5]; +Alanine (20 mM)): 142.7 % of IMP and 118.2 % of IMP
- +Alanine (20 mM) Max resp ΔF/F (T1R1/T1R3 receptor [5]; +Alanine (20 mM)): 1.7725 ΔF/F and 1.2 ΔF/F
- Max resp % of IMP +Alanine (20 mM) (T1R1/T1R3 receptor [5]; +Alanine (20 mM), relative to IMP): 118.2% and 142.7%
- +IMP (0.2 mM) Max resp % of Ala (T1R1/T1R3 receptor [5]; +IMP (0.2 mM)): 119.6 % of Ala and 165.8 % of Ala
- +IMP (0.2 mM) Max resp ΔF/F (T1R1/T1R3 receptor [5]; +IMP (0.2 mM)): 1.4725 ΔF/F
- Max resp ΔF/F +IMP (0.2 mM) (T1R1/T1R3 receptor [5]; +IMP (0.2 mM)): 1.393 ΔF/F and 1.473 ΔF/F
- Max resp % of Ala +IMP (0.2 mM) (T1R1/T1R3 receptor [5]; +IMP (0.2 mM), relative to Ala): 165.8% and 119.6%
- Activity (T1R1/T1R3 receptor [5]; Table 18, all transmembrane compounds tested, active / N/A (not active)): active
- ΔF/F0 of ternary mixture with phenylalanine and GMP compared to phenylalanine and GMP without the agonist (T1R1/T1R3 receptor [5]; with phenylalanine and GMP): approximately 10 ×
- agonist profile assessment (activation of T1R1/T1R3 by the compound alone) (T1R1/T1R3 receptor [4]): agonist

SMILES: O=c1nc[nH]c2c1ncn2C1O[C@H](COP(=O)(O)OP(=O)(O)OP(=O)(O)O)[C@@H](O)[C@H]1O (stereo partly drawn) [inosine triphosphate (ITP) trisodium salt]
- Activity (cat T1R1/T1R3 receptor [6]): active
- Max. resp. % of IMP (cat T1R1/T1R3 receptor [6]; hek293 cells): 25.1 % of IMP
- EC50 (cat T1R1/T1R3 receptor [6]; in the presence of 20 mM alanine, read-out: EC50- with Ala): 80 µM
- EC50 (cat T1R1/T1R3 receptor [1]; EC50- with Ala and IMP (mM), with 20 mM alanine and 0.2 mM IMP): 0.03 ± 0.01 mM
- EC50 (cat T1R1/T1R3 receptor [1]; [7]): 0.02 ± 0.03 mM
- EC50 (cat T1R1/T1R3 receptor [1]; [8]): 0.05 ± 0.03 mM

SMILES: O=C(CN1C(=O)C(=O)N(Cc2ccccc2)C1=O)c1ccc2c(c1)OCCCO2 [Formula 8, 1-benzyl-3-(2-(3,4-dihydro-2H-benzo[b][1,4]dioxepin-7-yl)-2-oxoethyl)imidazolidine-2,4,5-trione]
- T1R1/T1R3 PAM (T1R1/T1R3 receptor [3]): Weak PAM
- T1R1/T1R3 agonist (T1R1/T1R3 receptor [4]): No

SMILES: O=C(CN1C(=O)C(=O)N(CCc2cccs2)C1=O)c1ccc2c(c1)OCO2 [Formula 7, 1-(2-(benzo[d][1,3]dioxol-5-yl)-2-oxoethyl)-3-(2-(thiophen-2-yl)ethyl)imidazolidine-2,4,5-trione]
- T1R1/T1R3 PAM (T1R1/T1R3 receptor [3]): No
- T1R1/T1R3 agonist (T1R1/T1R3 receptor [4]): No

SMILES: O=C(CN1C(=O)C(=O)N(Cc2ccccc2)C1=O)c1ccc(Cl)s1 [Formula 12, 1-benzyl-3-(2-(5-chlorothiophen-2-yl)-2-oxoethyl)imidazolidine-2,4,5-trione]
- T1R1/T1R3 PAM (T1R1/T1R3 receptor [3]): Weak PAM
- T1R1/T1R3 agonist (T1R1/T1R3 receptor [4]): No

SMILES: COC(=O)[C@H](CC(C)C)NCc1ccccc1.Cl [Formula 18, Benzyl-L-leucine methyl ester hydrochloride]
- T1R1/T1R3 PAM (T1R1/T1R3 receptor [3]): Yes
- T1R1/T1R3 agonist (T1R1/T1R3 receptor [4]): Yes

SMILES: CCCC(CCC)NC(=O)c1ccc2c(c1)OCO2 [Formula 14, N-(heptan-4-yl)benzo[d][1,3]dioxole-5-carboxamide]
- T1R1/T1R3 PAM (T1R1/T1R3 receptor [3]): Yes
- T1R1/T1R3 agonist (T1R1/T1R3 receptor [4]): Yes

SMILES: O=C(CN1C(=O)C(=O)N(CCc2cccs2)C1=O)c1ccccc1 [Formula 6, 1-(2-oxo-2-phenylethyl)-3-(2-(thiophen-2-yl)ethyl)imidazolidine-2,4,5-trione]
- T1R1/T1R3 PAM (T1R1/T1R3 receptor [3]): No
- T1R1/T1R3 agonist (T1R1/T1R3 receptor [4]): No

SMILES: COC(=O)[C@@H](Cc1ccccc1)NCc1ccccc1.Cl [Formula 16, N-Benzyl-D-Phenylalanine methyl ester hydrochloride]
- T1R1/T1R3 PAM (T1R1/T1R3 receptor [3]): Yes
- T1R1/T1R3 agonist (T1R1/T1R3 receptor [4]): Yes

SMILES: O=C(CN1C(=O)C(=O)N(Cc2ccccc2)C1=O)c1ccccc1 [Formula 1, 1-benzyl-3-(2-oxo-2-phenylethyl)imidazolidine-2,4,5-trione]
- T1R1/T1R3 PAM (T1R1/T1R3 receptor [3]): No
- T1R1/T1R3 agonist (T1R1/T1R3 receptor [4]): No

From patent US11185100B2 (priority 2014, dated 2021)
